Assay results as given in ChEMBL document CHEMBL1201862, “PubChem BioAssay data set” (2004).
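All cell lines were grown in 96-well plates and treated with compound for 48 hours. Abbreviation: GI50, concentration required for 50% inhibition of growth.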 Activity calls are given as the source filed them. Rule as the data show it: active = GI50 up to about 1.1 µM and inactive = higher.

Experiments:
Assay in all cases: NCI-60 cell line screen, 48 h
[1] = tested on: KM12
[2] = tested on: HT-29
[3] = tested on: NCI-H226
[4] = tested on: HOP-92
[5] = tested on: UACC-62
[6] = tested on: SF-295
[7] = tested on: SK-MEL-28
[8] = tested on: NCI-H23
[9] = tested on: OVCAR-5
[10] = tested on: OVCAR-8
[11] = tested on: SF-268
[12] = tested on: Malme-3M
[13] = tested on: SK-MEL-2
[14] = tested on: HL-60
[15] = tested on: IGROV-1
[16] = tested on: HCT-116
[17] = tested on: UACC-257
[18] = tested on: SNB-19
[19] = tested on: SK-MEL-5
[20] = tested on: SR

Compound	GI50 [1]	GI50 [2]	GI50 [3]	GI50 [4]	GI50 [5]	GI50 [6]	GI50 [7]	GI50 [8]	GI50 [9]	GI50 [10]	GI50 [11]	GI50 [12]	GI50 [13]	GI50 [14]	GI50 [15]	GI50 [16]	GI50 [17]	GI50 [18]	GI50 [19]	GI50 [20]
C/C(=N\NC(=O)c1ccncc1)c1ccc2ccccc2c1O	2.31 µM (inactive)	0.498 µM (active)	1.77 µM (inactive)	8.28 µM (inactive)	2.19 µM (inactive)	1.77 µM (inactive)	17.2 µM (inactive)	3.82 µM (inactive)	6.12 µM (inactive)	2.18 µM (inactive)	0.802 µM (active)	1.19 µM (inactive)	7.69 µM (inactive)	0.638 µM (active)	2.29 µM (inactive)	0.608 µM (active)	2.71 µM (inactive)	17.5 µM (inactive)	1.67 µM (inactive)	0.303 µM (active)
O=S(=O)(Nc1ccccc1)c1ccc(-c2c3nc(c(-c4ccc(S(=O)(=O)Nc5ccccc5)cc4)c4ccc([nH]4)c(-c4ccc(S(=O)(=O)Nc5ccccc5)cc4)c4nc(c(-c5ccc(S(=O)(=O)Nc6ccccc6)cc5)c5ccc2[nH]5)C=C4)C=C3)cc1	> 31.6 µM (inactive)	> 31.6 µM (inactive)	> 100 µM (inactive)	12.8 µM (inactive)	> 31.6 µM (inactive)	22.9 µM (inactive)	> 10 µM (inactive)	> 31.6 µM (inactive)	> 31.6 µM (inactive)	> 31.6 µM (inactive)	> 31.6 µM (inactive)	> 31.6 µM (inactive)	> 31.6 µM (inactive)	> 31.6 µM (inactive)	> 93.3 µM (inactive)	> 31.6 µM (inactive)	26.4 µM (inactive)	14.1 µM (inactive)	> 31.6 µM (inactive)	> 31.6 µM (inactive)
N=C1/C(=C/c2ccc(F)cc2)C(=O)N=C2SC=NN12	> 100 µM (inactive)	> 100 µM (inactive)	> 100 µM (inactive)	69.2 µM (inactive)	87.9 µM (inactive)	> 100 µM (inactive)	> 100 µM (inactive)	> 100 µM (inactive)	> 100 µM (inactive)	> 100 µM (inactive)	> 100 µM (inactive)	> 100 µM (inactive)	> 100 µM (inactive)	80.5 µM (inactive)	> 100 µM (inactive)	> 100 µM (inactive)	> 100 µM (inactive)	> 100 µM (inactive)	62.5 µM (inactive)	92.3 µM (inactive)
COC(=O)NNc1c([N+](=O)[O-])cnn(-c2ccccc2)c1=O	5.19 µM (inactive)	2.04 µM (inactive)	4.19 µM (inactive)	2.18 µM (inactive)	2.11 µM (inactive)	3.46 µM (inactive)	3.83 µM (inactive)	2.67 µM (inactive)	4.44 µM (inactive)	1.78 µM (inactive)	3.1 µM (inactive)	2.47 µM (inactive)	2.95 µM (inactive)	1.39 µM (inactive)	17.9 µM (inactive)	1.78 µM (inactive)	2.51 µM (inactive)	10.5 µM (inactive)	4.07 µM (inactive)	0.497 µM (active)
O=C1/C(=c2\c3ccccc3n3c(=O)c4ccccc4nc23)Nc2ccccc21 [CANDIDINE]	> 59.7 µM (inactive)	26.6 µM (inactive)	> 100 µM (inactive)	> 75.7 µM (inactive)	43.9 µM (inactive)	> 78.3 µM (inactive)	> 100 µM (inactive)	> 64.9 µM (inactive)	> 100 µM (inactive)	> 91.8 µM (inactive)	85.3 µM (inactive)	33 µM (inactive)	> 100 µM (inactive)	> 10 µM (inactive)	> 100 µM (inactive)	> 100 µM (inactive)	> 86.7 µM (inactive)	> 100 µM (inactive)	> 53.8 µM (inactive)	> 89.5 µM (inactive)
C/C1=C\C=C(\C(C)C)CC/C(C(=O)O)=C\CC/C(C)=C/CC1 [NEOCROTOCEMBRANEIC ACID]	20.6 µM (inactive)	32 µM (inactive)	20.9 µM (inactive)	19.4 µM (inactive)	13.1 µM (inactive)	20 µM (inactive)	24.6 µM (inactive)	20.7 µM (inactive)	29.3 µM (inactive)	31.2 µM (inactive)	32.9 µM (inactive)	23.2 µM (inactive)	18.1 µM (inactive)	24.8 µM (inactive)	42 µM (inactive)	15.9 µM (inactive)	22.5 µM (inactive)	24.9 µM (inactive)	19.3 µM (inactive)	19.5 µM (inactive)
